From PubChem BioAssay (NCI)
Several values for one entry are separate records, joined by “and”; a condition that tells them apart may be missing. Equal entries are not always repeated.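 96-well plates; 48 h exposure; 5 concentrations. Endpoints by linear interpolation between flanking doses. Not reached: highest tested concentration assigned. Abbreviation: GI50, concentration required for 50% inhibition of growth. TGI marks complete inhibition of growth.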

How the values were obtained:
Test in all cases: inhibition of tumour cell growth, NCI panel, 48 h
SR leukemia = test system: SR leukemia
HL-60(TB) leukemia = test system: HL-60(TB) leukemia
A549 NSCLC = test system: A549 NSCLC
HOP-62 NSCLC = test system: HOP-62 NSCLC
NCI/ADR-RES ovarian = test system: NCI/ADR-RES ovarian
RXF 393 renal = test system: RXF 393 renal
SNB-75 CNS = test system: SNB-75 CNS
SK-MEL-5 melanoma = test system: SK-MEL-5 melanoma
HCT-116 colon = test system: HCT-116 colon
U251 CNS = test system: U251 CNS

SMILES	GI50 (SR leukemia)	TGI (SR leukemia)	GI50 (HL-60(TB) leukemia)	TGI (HL-60(TB) leukemia)	GI50 (A549 NSCLC)	TGI (A549 NSCLC)	GI50 (HOP-62 NSCLC)	TGI (HOP-62 NSCLC)	GI50 (NCI/ADR-RES ovarian)	TGI (NCI/ADR-RES ovarian)	GI50 (RXF 393 renal)	TGI (RXF 393 renal)	GI50 (SNB-75 CNS)	TGI (SNB-75 CNS)	GI50 (SK-MEL-5 melanoma)	TGI (SK-MEL-5 melanoma)	GI50 (HCT-116 colon)	TGI (HCT-116 colon)	GI50 (U251 CNS)	TGI (U251 CNS)
Nc1c(C(=O)Nc2cccc3ccccc23)sc2nc3c(cc12)CCCCC3	0.214 µM	> 50 µM	0.202 µM	2.87 µM	1.9 µM	> 50 µM	2.63 µM	> 50 µM	0.402 µM	> 50 µM	0.992 µM	> 50 µM	0.161 µM	> 50 µM	0.347 µM	11.5 µM	0.407 µM	> 50 µM	0.998 µM	> 50 µM
O=C1NC(=O)[C@H]2C3C=CC([C@@H]12)[C@@H]1C(=O)NC(=O)[C@H]31	–	> 100 µM	–	> 100 µM	–	> 100 µM	–	> 100 µM	–	> 100 µM	–	> 100 µM	–	–	–	> 100 µM	–	> 100 µM	–	> 100 µM
Nc1nc(F)nc2c1ncn2C1OC(COP(=O)(O)O)C(O)C1O (stereo not given)	–	> 621 µM	–	71.9 µM	–	511 µM	–	122 µM	–	106 µM	–	413 µM	–	713 µM	–	406 µM	–	325 µM	–	> 1250 µM
C=C1C(=O)O[C@H]2[C@H]1CC/C(COC(=O)N[C@@H](Cc1c[nH]c3ccccc13)C(=O)OC)=C\CC[C@@]1(C)O[C@@H]21	0.262 µM	1.51 µM	0.363 µM	1.89 µM	9.94 µM	24.3 µM	8.77 µM	22.1 µM	6.78 µM	27.3 µM	0.998 µM	2.29 µM	4.45 µM	19.3 µM	1.68 µM	3.26 µM	1.25 µM	2.79 µM	2.42 µM	7.32 µM
CC(=O)O[C@H]1C(=O)[C@@]2(C)[C@H]([C@H](OC(=O)c3ccccc3)[C@]3(O)C[C@H](OC(=O)[C@H](OC(=O)CCC(=O)OC4CCC(S/N=C(N)/N=C(\N)N(C)C)CC4)[C@@H](NC(=O)c4ccccc4)c4ccccc4)C(C)=C1C3(C)C)[C@]1(OC(C)=O)CO[C@@H]1C[C@@H]2O (stereo not given in full)	0.00631 µM	> 50 µM	0.0101 µM	0.0234 µM	0.0084 µM	> 50 µM	0.0133 µM	> 50 µM	1.82 µM	> 24.4 µM	0.0135 µM	> 50 µM	< 0.005 µM	0.0174 µM	0.0176 µM	10.5 µM	< 0.005 µM	> 50 µM	0.00815 µM	> 50 µM
O=C1CN2CCC1C/C2=C\c1ccnc2c(Cl)cccc12 (stereo not given)	36.5 µM	> 100 µM	67.4 µM	> 100 µM	> 100 µM	> 100 µM	> 100 µM	> 100 µM	39.2 µM	> 100 µM	> 100 µM	> 100 µM	> 100 µM	> 100 µM	31 µM	> 100 µM	45 µM	> 100 µM	64.4 µM	> 100 µM
CCOC(=O)CCc1c(C)c2ccc(O)cc2oc1=O	–	> 100 µM	–	> 100 µM	–	> 100 µM	–	> 100 µM	–	> 100 µM	–	> 100 µM	–	> 100 µM	–	> 100 µM	–	> 100 µM	–	> 100 µM
Cc1cc(Nc2nc(N3CCOCC3)nc3ccccc23)n[nH]1	3.65 µM	28.1 µM	5.5 µM	50.1 µM	5.2 µM	> 100 µM	6.22 µM	> 100 µM	18.2 µM	> 100 µM	1.35 µM	6.17 µM	1.55 µM	7.49 µM	18.8 µM	> 100 µM	3.64 µM	27 µM	4.83 µM	21.6 µM
CNC(=O)c1ccc(Nc2nc(OC3CCCC3)c3c(-c4ccc5nc(C)oc5c4)c[nH]c3n2)c(OC)c1	0.0861 µM	> 100 µM	29.2 µM	> 100 µM	0.201 µM	> 100 µM	> 100 µM	> 100 µM	1.71 µM	> 100 µM	> 100 µM	> 100 µM	0.474 µM	> 100 µM	2.12 µM	> 100 µM	0.409 µM	> 60.5 µM	15.3 µM	> 100 µM
CCN(CC)CCCC(C)N/C(c1cccc(OC)c1)=c1\c(=O)[nH]n(-c2c3ccccc3nc3ccccc23)c(=O)\c1=C(/NC(C)CCCN(CC)CC)c1cccc(OC)c1 (stereo not given)	1.28 µM	5.61 µM	2.16 µM	5.23 µM	0.992 µM	4.25 µM	1.47 µM	5.03 µM	1.79 µM	8.91 µM	1.02 µM	2.55 µM	1.41 µM	2.74 µM	1.7 µM	3.13 µM	0.491 µM	3.25 µM	–	–
Cc1c(N(C(=O)c2cc(-c3cc(Cl)ccc3C(=O)N3Cc4ccccc4C[C@H]3CN3CCOCC3)n(C)c2C)c2ccc(O)cc2)cc(C#N)n1C	6.25 µM	> 100 µM	2.38 µM	29.1 µM	27.6 µM	> 100 µM	25.8 µM	> 100 µM	50.6 µM	> 100 µM	3.88 µM	17.6 µM	9.79 µM	30.9 µM	14.6 µM	36.9 µM	7.66 µM	> 100 µM	18.9 µM	> 100 µM
OCC1OC(O)C(N=Cc2ccc3c(c2)OCO3)C(O)C1O (stereo not given)	–	> 100 µM	–	> 100 µM	–	> 100 µM	–	> 100 µM	–	> 100 µM	–	> 100 µM	–	> 100 µM	–	> 100 µM	–	> 100 µM	–	> 100 µM
O=C(Nc1nc(-c2ccc(Cl)cc2)cs1)c1ccc(O)c(O)c1	2.09 µM	9.26 µM	2.85 µM	9.53 µM	2.91 µM	14.3 µM	4.68 µM	17.6 µM	3.89 µM	20.3 µM	3.82 µM	17 µM	3.25 µM	17.4 µM	2.98 µM	12 µM	3.71 µM	14.3 µM	3 µM	13.7 µM
CCC[C@H](Nc1nc(-c2ccc(NC(=O)NCC)c(OC)c2)ncc1C)c1cccnc1	0.03 µM	1.71 µM	0.0246 µM	0.0582 µM	0.0378 µM	> 36.2 µM	0.0638 µM	39.7 µM	0.214 µM	9.97 µM	0.0415 µM	20 µM	0.0489 µM	22.8 µM	0.0273 µM	0.0912 µM	0.0349 µM	10.5 µM	0.0395 µM	17.7 µM
COc1cc(-c2ccc(-[n+]3nc(-c4ccc([N+](=O)[O-])cc4)nn3-c3ccc([N+](=O)[O-])cc3)c(OC)c2)ccc1-[n+]1nc(-c2ccc([N+](=O)[O-])cc2)nn1-c1ccc([N+](=O)[O-])cc1	30.4 µM	> 100 µM	1.91 µM	> 46.2 µM	3.46 µM	31.2 µM	1.84 µM	4.54 µM	26.9 µM	> 100 µM	2.25 µM	6.08 µM	1.3 µM	2.95 µM	4.28 µM	23.6 µM	3.38 µM	> 31.6 µM	10.8 µM	38.7 µM
CC1=Cc2cc3[n-]c(cc4nc(cc5[n-]c(cc1n2)c(C)c5CCC(=O)O)C(CCC(=O)O)=C4C)cc3C.[Cu+2]	> 1 µM and 45.1 µM	> 75.7 µM	> 1 µM and 22.2 µM	> 1 µM and 51.2 µM	> 1 µM and 70.9 µM	> 100 µM	> 1 µM and 20.8 µM	> 1 µM and 59.1 µM	37.2 µM	> 100 µM	> 1 µM and 15.4 µM	> 1 µM and 33.9 µM	> 1 µM and 8.39 µM	> 1 µM and 18.7 µM	> 1 µM and 14.5 µM	> 1 µM and 31.5 µM	> 1 µM and 33.4 µM	> 100 µM	> 1 µM and 9.85 µM	> 1 µM and 23.2 µM
COc1cc(/C=C/C(=O)CC(=O)/C=C/c2ccc(OC(=O)CCNC34CC5CC(CC(C5)C3)C4)c(OC)c2)ccc1OC(=O)CCNC12CC3CC(CC(C3)C1)C2	2.37 µM	8.84 µM	2.27 µM	9.27 µM	10.3 µM	28.5 µM	3.99 µM	16.6 µM	8 µM	49.9 µM	–	–	4.85 µM	22.5 µM	3.28 µM	12.6 µM	2.37 µM	9.9 µM	3.39 µM	12 µM
O=S(=O)(NCCNc1cc(-c2cn(-c3ccccc3)nc2-c2cccc(O)c2)ccn1)c1ccc(F)cc1	1.6 µM	4.88 µM	2.43 µM	6.22 µM	3.43 µM	12.1 µM	1.98 µM	5.44 µM	2.69 µM	–	2.09 µM	7.54 µM	2.83 µM	16.5 µM	1.73 µM	3.22 µM	2.86 µM	10.4 µM	2.62 µM	7.85 µM
Nc1ccn(C2OC(COP(=O)(O)O)C(O)C2O)c(=O)n1 (stereo not given)	–	> 44.7 µM	–	6.48 µM	–	> 100 µM	–	> 100 µM	–	> 100 µM	–	> 94.7 µM	–	> 100 µM	–	> 100 µM	–	> 100 µM	–	> 100 µM
CCCN1C(=O)/C(=C/c2ccc(O)cc2)SC1=Nc1ccccc1	14 µM	> 100 µM	> 100 µM	> 100 µM	23.9 µM	58.2 µM	21.2 µM	37.9 µM	20.4 µM	36.4 µM	23.2 µM	51.4 µM	–	–	22.8 µM	46 µM	17.5 µM	31.3 µM	15.6 µM	29 µM
COc1cc(/C=C2\C[C@H]3[C@@H]4CC=C5C[C@@H](OC(C)=O)CC[C@]5(C)[C@H]4CC[C@]3(C)[C@H]2OC(C)=O)ccc1OCCCn1ccnc1	8.2 µM	36.3 µM	12.7 µM	34.1 µM	8.45 µM	20.4 µM	11.3 µM	19.5 µM	11.3 µM	28.8 µM	1.78 µM	10.4 µM	–	–	7.25 µM	15.4 µM	7.78 µM	17.2 µM	6.28 µM	12.7 µM
O=C(CCc1ccc(O)c(O)c1)c1ccc(O)c(O)c1O	–	> 100 µM	–	32.6 µM	–	> 100 µM	–	–	–	> 100 µM	–	–	–	> 100 µM	–	36.3 µM	–	> 100 µM	–	62.4 µM
CC(=O)NC(Cc1c[nH]c2ccccc12)C(=O)O (stereo not given)	–	> 100 µM	–	> 100 µM	–	> 100 µM	–	> 100 µM	–	> 100 µM	–	> 100 µM	–	–	–	> 100 µM	–	> 100 µM	–	> 100 µM
Cc1cc(S(=O)(=O)/N=C(\N)n2nc(C)c(C)c2C)c(SCc2ccccc2)cc1Cl	> 100 µM	> 100 µM	–	–	14 µM	> 100 µM	> 100 µM	> 100 µM	9.22 µM	> 100 µM	58.6 µM	> 100 µM	> 100 µM	> 100 µM	5.65 µM	> 100 µM	38.5 µM	> 100 µM	7.47 µM	> 100 µM
CCC[CH2][Sn]([CH2]CCC)([O]C(=O)c1cccc(F)c1F)[O][Sn]([CH2]CCC)([CH2]CCC)[O]C(=O)c1cccc(F)c1F	0.0771 µM	–	–	–	1.78 µM	3.44 µM	1.6 µM	3 µM	0.3 µM	1.32 µM	0.0216 µM	0.105 µM	0.317 µM	1.52 µM	0.52 µM	1.69 µM	0.257 µM	0.848 µM	0.147 µM	0.449 µM
CCC(=O)Nc1ccc2c(c1)CN1C(=O)c3ccccc3C1=N2	> 100 µM	> 100 µM	> 100 µM	> 100 µM	> 100 µM	> 100 µM	> 100 µM	> 100 µM	> 100 µM	> 100 µM	–	–	> 100 µM	> 100 µM	> 100 µM	> 100 µM	> 100 µM	> 100 µM	> 100 µM	> 100 µM
